{"source": "paper PMC12067741", "about": "“Inhibition of SOD1 trimerization is a novel drug target for ALS disease” (Translational Neurodegeneration, 2025)", "key": {"[1]": {"conditions": "mouse, in vivo, po, 20 mg/kg", "text": "Next, we checked the basic in vitro ADME test including pharmacokinetics, plasma protein binding, CYP (Cytochrome P450) inhibition, metabolic stability and blood–brain barrier (BBB) permeability. […] We also plan to test safety panel assay in the future to obtain safety data for the drug.\n(§1) Fig. S8. Preclinical data of PRG-A-04 a Plasma protein binding b CYP inhibition(direct) […]\n(§2) d Mouse Brain Tissue penetration\n(§3) For the convenience of calculation, […]"}, "[2]": {"test": "Metabolic stability in liver microsomes", "assay_type": "in vitro ADME", "conditions": "SD rat liver microsomes"}, "Plasma stability": {"test": "Plasma stability", "assay_type": "in vitro ADME", "conditions": "CD-1 mouse plasma, after 120 min of incubation"}, "[3]": {"test": "Pharmacokinetics in mice (compound screening, IV/PO)", "assay_type": "in vivo, mouse", "conditions": "mouse (compound screening), PO3, 20 mg/kg", "protocol": "Fig. S1. Optimized inhibitor reduces SOD1 aggregation. a, Mutant SOD1s induced WT-SOD1 aggregation. Testing the selected chemicals to check the inhibitory effect on SOD1 aggregation .HEK293 cells were transfected with MT-SOD1 vectors (A4V, G 93 A) and treated with selected chemicals (5 mM). After incubation, transfected cells were harvested with TNNI buffer and fixed with 0.04% glutaraldehyde (Glu) for 30min. Samples were separated using SDS-PAGE. b-c, PRG-A-04 inhibited SOD1 inclusions in SK-N-SH cells. (b) Cells expressing MT-SOD1 vectors were treated with PRG-A-04 ([…]) for 24 hr. After incubation, cells were fixed with 4 % PFA and observed under the fluorescence microscope. (c) Cells with SOD1 inclusions (white arrows; strong intensity of SOD1) were counted by photomicrographs and the percentages were shown with standard deviation (SD). For cell counting, ten fluorescence images were randomly selected. Counting of cells were performed by three independent observers, who were blinded to transfection or chemical treatment group; two-tailed Student’s t-test. NS; Not significant, ****P < 0.001, d, PRG-A- […]\ndegradationin blood as well as gastro-intestinal tract.IV; intravenous injected group, PO; Per Os administrated group e, […]\nshow cytotoxicity. To know the toxic effect of PRG-A-04 , human normal fibroblast (f) and neuron cells (g) were incubated with PRG -A-04 for 48 hr dose dependently and measured the viability through MTT assay .“Con” means Dimethyl sulfoxide (DMSO) -treated control . The data are normalized to DMSO-treated cells. n=3 independent experiments; two-tailed Student’s t-test.NS; Not significant, *P < 0.05, **P < 0.01, ***P < 0.005."}, "MT-SOD1 protein uptake": {"tested_on": "MT-SOD1 protein uptake", "test": "SOD1 recombinant protein uptake into neuronal cells", "assay_type": "cell-based", "protocol": "For monitoring the localization of SOD1 recombinant proteins, SOD1-Halo proteins were added in neuronal cultures for 2 h and then the cells were incubated with the cell-permeable HaloTag-fluorscent ligands (diAcFAM) for 30 min. After incubation, cells were washed with serum-free culture medium three times and incubated in serum-containing culture medium in a CO2 incubator for 30 min to wash out unbound ligand. Fluorescent images of live cells were obtained using a commercial Tomocube HT-2H holotomography system (Daejeon, Republic of Korea).\nWe hypothesized that PRG-A-04, which targets trimeric SOD1, would inhibit SOD1 protein uptake. MT-SOD1 proteins were incubated with PRG-A-04 in vitro, and then cells were treated with the mixture. The MT-SOD1 protein uptake was reduced by incubation with PRG-A-04, as was SOD1 oligomerization (Fig. 3f, g). […] However, whether neuron-specific receptors on synapses, physiological conditions (neuronal cellular stress such as ion deficiency, environmental conditions such as hypoxia) and other ALS-related genetic causes (TDP-43, FUS, etc.) are essential for SOD1 uptake requires further study.\nFig. S3 SOD1 protein uptake into the cells through endocytosis. a, The uptake of SOD1 proteins was achieved by endocytosis. SH-SY5Y cells were treated with SOD1 recombinant proteins and endocytosis inhibitor (Dynasore; […]) for 6hr. After incubations, cells were harvested with RIPA and separated by SDS-PAGE. S.E: short exposure, L.E: long exposure. b, The recombinant MT-SOD1 protein is located intracellular space in neuron cells. SOD1-Halo proteins (3 μg/ml) were treated in neuron cells for 2 hr and incubated with HaloTag-fluorscent ligands (cellpermeable ligands; diAcFAM) for 30 min. After incubation, cells were washed with fresh culture medium three times and.\nIncubate cells in complete culture medium at CO2 incubator for 30 min to wash unbound ligand. The fluorescence images of live cells were obtained using a commercial holotomography (HT-2H). White arrows indicate the intensity of SOD1. BF; Bright field, Scale bar; […]."}, "CYP 1A2": {"target": "CYP 1A2 (Homo sapiens, UniProt P05177)", "sequence (P05177 whole entry)": "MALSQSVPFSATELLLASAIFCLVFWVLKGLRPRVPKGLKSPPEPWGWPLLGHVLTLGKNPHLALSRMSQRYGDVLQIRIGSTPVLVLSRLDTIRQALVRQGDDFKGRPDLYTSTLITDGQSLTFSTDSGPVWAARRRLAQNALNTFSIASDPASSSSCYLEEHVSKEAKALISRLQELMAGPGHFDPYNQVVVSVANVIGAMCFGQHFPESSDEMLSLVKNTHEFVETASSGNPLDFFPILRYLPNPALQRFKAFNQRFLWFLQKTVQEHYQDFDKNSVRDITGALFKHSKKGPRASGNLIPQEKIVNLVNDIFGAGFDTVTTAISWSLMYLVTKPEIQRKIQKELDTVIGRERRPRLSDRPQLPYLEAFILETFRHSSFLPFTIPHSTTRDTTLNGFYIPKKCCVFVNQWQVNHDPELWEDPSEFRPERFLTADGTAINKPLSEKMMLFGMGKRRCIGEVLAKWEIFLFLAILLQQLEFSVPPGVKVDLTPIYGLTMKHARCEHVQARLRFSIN", "test": "CYP inhibition (direct)", "assay_type": "in vitro ADME", "conditions": "CYP 1A2, direct inhibition", "text": "as §1, §2, §3"}}, "note": "“Also recorded” adds a separate entry of the source. Read-outs that look alike come from different tables or passages of the source.", "data": [{"compound": "COc1cc(C=CCOC2Cc3cc4ccc(=O)oc4cc3OC2(C)C)ccc1[N+](=O)[O-]", "note": "(centres unmarked) [PRG-A-04]", "values": [{"measurement": "Brain/Plasma Ratio, M01+3n", "setting": "[1]; 0.5 h", "value": 2.18}, {"measurement": "Brain/Plasma Ratio, M02+3n", "setting": "[1]; 0.5 h", "value": 1.54}, {"measurement": "Brain/Plasma Ratio, M03+3n", "setting": "[1]; 0.5 h", "value": 1.90}, {"measurement": "Brain/Plasma Ratio, Mean", "setting": "[1]; 0.5 h", "value": 1.87}, {"measurement": "Brain/Plasma Ratio, M01+3n", "setting": "[1]; 1 h", "value": 2.29}, {"measurement": "Brain/Plasma Ratio, M02+3n", "setting": "[1]; 1 h", "value": 2.02}, {"measurement": "Brain/Plasma Ratio, M03+3n", "setting": "[1]; 1 h", "value": 2.02}, {"measurement": "Brain/Plasma Ratio, M01+3n", "setting": "[1]; 12 h", "value": 1.92}, {"measurement": "Brain/Plasma Ratio, M02+3n", "setting": "[1]; 12 h", "value": 1.87}, {"measurement": "Brain/Plasma Ratio, M03+3n", "setting": "[1]; 12 h", "value": 1.71}, {"measurement": "Brain/Plasma Ratio, Mean", "setting": "[1]; 12 h", "value": 1.84}, {"measurement": "extent of metabolism in liver microsomes", "setting": "[2]", "value": "highly metabolized"}, {"measurement": "stability in plasma", "setting": "Plasma stability", "value": "stable"}, {"measurement": "bioavailability", "setting": "[3]", "value": 63.78, "unit": "%"}, {"measurement": "effect on MT-SOD1 protein uptake", "setting": "MT-SOD1 protein uptake; MT-SOD1 protein pre-incubated with PRG-A-04 in vitro, then added to neuronal cells", "value": "selectively inhibited MT-SOD1 uptake; also recorded: reduced"}, {"measurement": "effect on SOD1 oligomerization induced by SOD1 protein uptake", "setting": "MT-SOD1 protein uptake; neuronal cells", "value": "reduced SOD1 oligomerization induced by SOD1 protein uptake"}, {"measurement": "IC50", "setting": "CYP 1A2", "value": "> 10", "unit": "µM"}]}]}
